We go through 13 molecules from ChEMBL document CHEMBL1201862, “PubChem BioAssay data set” (2004).

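Five concentrations, 48 hours, 96-well plates. At the GI50, growth is halved.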 Activity calls are given as the source filed them. No stated cut-off is given here; in the data, active = GI50 up to about 1.1 µM and inactive = higher. A value given as a limit tells only on which side of the number the result lay.

Among the test systems are U-251; T47D; CCRF-CEM; SK-MEL-5; SN12C; IGROV-1; SF-539; BT-549; HT-29; K562; NCI-H226; NCI-H23; NCI/ADR-RES; TK-10; SK-OV-3; ACHN; DU-145; XF498; DLD-1; SNB-78.
Assay in all cases: inhibition of tumour cell growth, NCI panel, 48 h

As to `COc1ccc2[nH]c(C(=O)N3CC(CCl)c4c3cc(N)c3ccccc43)cc2c1` (stereo unspecified), the GI50 in the assay on U-251 was < 0.01 µM (active); with T47D it was 0.0101 µM (active); with CCRF-CEM, < 0.01 µM (active); with SK-MEL-5, < 0.01 µM (active); in the assay on SN12C, < 0.01 µM (active); in the assay with IGROV-1, < 0.01 µM (active). Also, the GI50 with SF-539 is < 0.01 µM (active); with BT-549 it was < 0.0153 µM (active); in the assay on HT-29 it was < 0.01 µM (active); with K562, < 0.01 µM (active); with NCI-H226, < 0.0133 µM (active); in the assay on NCI-H23, < 0.01 µM (active). Moreover, the GI50 in the assay on NCI/ADR-RES is < 0.01 µM (active); in the assay on TK-10, < 0.01 µM (active); in the assay on SK-OV-3 it was < 0.014 µM (active); in the assay on ACHN it was < 0.01 µM (active); in the assay on DU-145, < 0.01 µM (active).
For the molecule `CN(C)CCNC(=O)c1cccc2[nH]c(-c3ccncc3)nc12`, the GI50 in the assay with U-251 is 3.1 µM (inactive); with T47D it was 12.7 µM (inactive); in the assay on CCRF-CEM, 2.29 µM (inactive); with SK-MEL-5, 2.75 µM (inactive); in the assay on SN12C, 9.73 µM (inactive); with IGROV-1, 7.5 µM (inactive). Moreover, the GI50 in the assay with SF-539 is 2.65 µM (inactive); in the assay with BT-549 it was 11.4 µM (inactive); in the assay with HT-29 it was 2.61 µM (inactive); with K562, 2.64 µM (inactive); with NCI-H226, 15.2 µM (inactive); with NCI-H23 it was 8.39 µM (inactive). Moreover, the GI50 was 13.2 µM (inactive) in the assay on NCI/ADR-RES, 6.5 µM (inactive) with TK-10, 6.53 µM (inactive) in the assay with ACHN and 7.76 µM (inactive) in the assay with DU-145.
Take `CC(=O)Oc1c(OC(C)=O)c(-c2ccc(O)c(O)c2)c(O)c(O)c1-c1ccc(O)cc1`: the GI50 in the assay with U-251 is > 100 µM (inactive); with CCRF-CEM it was 61 µM (inactive); in the assay with SK-MEL-5, 19.7 µM (inactive); in the assay with SN12C, > 100 µM (inactive); in the assay with IGROV-1 it was 93.1 µM (inactive); with XF498, 82.2 µM (inactive). Also, the GI50 with SF-539 is > 100 µM (inactive); in the assay on HT-29, > 100 µM (inactive); in the assay with K562, 50.7 µM (inactive); with NCI-H226, > 100 µM (inactive); with NCI-H23 it was > 100 µM (inactive); with NCI/ADR-RES it was > 100 µM (inactive). The GI50 in the assay on DLD-1 and with SK-OV-3 was > 100 µM (inactive) throughout.
`COc1cccc(NC(=O)C(=O)C(C(=O)c2ccccc2F)C2OC(=O)c3ccccc32)c1` (stereo unspecified): the GI50 in the assay on SNB-78 was 15.5 µM (inactive); in the assay on U-251, 15.5 µM (inactive); in the assay on CCRF-CEM it was 16.9 µM (inactive); in the assay with SK-MEL-5, 52 µM (inactive); with SN12C it was 18.7 µM (inactive); with IGROV-1, 56.6 µM (inactive). In addition, the GI50 in the assay with SF-539 is 21.3 µM (inactive); in the assay on HT-29, 34.3 µM (inactive); with K562 it was 30.9 µM (inactive); in the assay on NCI-H226, 28 µM (inactive); with NCI-H23 it was 29.6 µM (inactive); in the assay with DLD-1 it was 36.6 µM (inactive). For the same molecule, the GI50 in the assay with TK-10 was > 100 µM (inactive); in the assay with SK-OV-3, 35.2 µM (inactive); with ACHN it was 45.1 µM (inactive).
Take `COc1cc(CN(C)N2C(=O)c3cccc4cc([N+](=O)[O-])cc(c34)C2=O)cc(OC)c1OC`: the GI50 with U-251, in the assay with T47D, in the assay with CCRF-CEM, in the assay with SK-MEL-5, with SN12C and in the assay on IGROV-1 was > 100 µM (inactive) in each case. For the same molecule, the GI50 with BT-549 is > 100 µM (inactive); with HT-29, > 100 µM (inactive); with K562, > 100 µM (inactive); in the assay on NCI-H226, 58.1 µM (inactive); in the assay with NCI-H23, > 100 µM (inactive); in the assay with NCI/ADR-RES it was > 100 µM (inactive). The figures for the GI50 with SK-OV-3 and in the assay on DU-145 were 44.1 µM (inactive) and > 100 µM (inactive), respectively.
Regarding `COc1nc(Cl)nc(N[C@H](C)c2c3ccccc3cc3ccccc23)n1`, the GI50 with U-251 was 16.4 µM (inactive); in the assay with T47D, 1.99 µM (inactive); in the assay with CCRF-CEM, 10.4 µM (inactive); in the assay with SK-MEL-5 it was 5.38 µM (inactive); in the assay with SN12C, 0.879 µM (active); in the assay with IGROV-1 it was 6.75 µM (inactive). The GI50 is 17.8 µM (inactive) in the assay with SF-539; 18 µM (inactive) in the assay on BT-549; 15.5 µM (inactive) with HT-29; 8.49 µM (inactive) in the assay on K562; 13.1 µM (inactive) in the assay on NCI-H226; 16.9 µM (inactive) in the assay on NCI-H23. Moreover, the GI50 in the assay on NCI/ADR-RES is 14.2 µM (inactive); in the assay with TK-10, 0.807 µM (active); in the assay on SK-OV-3 it was 15.7 µM (inactive); in the assay with ACHN, 17.8 µM (inactive); in the assay on DU-145 it was 12.4 µM (inactive).
For the molecule `CCOC(=O)CCn1[nH]c(=O)c(Cl)c(Cl)c1=O`, the GI50 in the assay with SNB-78, in the assay with U-251, in the assay with CCRF-CEM, in the assay on SK-MEL-5, in the assay on SN12C and in the assay with IGROV-1 was > 100 µM (inactive) throughout. For the same molecule, the GI50 in the assay with XF498, in the assay with HT-29, in the assay with K562, with NCI-H226, with NCI-H23 and in the assay with DLD-1 was > 100 µM (inactive) each time. Moreover, the GI50 with TK-10, in the assay with SK-OV-3 and in the assay with ACHN was > 100 µM (inactive) throughout.
For the molecule `O=C1NC(O)c2cc3ccccc3cc2O1` (stereo unspecified), the GI50 with U-251 was 26.5 µM (inactive); in the assay with T47D it was 25.5 µM (inactive); in the assay on CCRF-CEM, 29.2 µM (inactive); in the assay on SK-MEL-5, 56.5 µM (inactive); in the assay on SN12C, 69 µM (inactive); with IGROV-1, 69.5 µM (inactive). Moreover, the GI50 with SF-539 was 28 µM (inactive); in the assay with BT-549, 26.4 µM (inactive); with HT-29, > 100 µM (inactive); with K562 it was 34.9 µM (inactive); with NCI-H226, > 100 µM (inactive); in the assay on NCI-H23, 42.7 µM (inactive). The GI50 was 51.4 µM (inactive) in the assay with NCI/ADR-RES; > 100 µM (inactive) in the assay with TK-10; > 100 µM (inactive) in the assay with SK-OV-3; > 100 µM (inactive) in the assay with ACHN; > 100 µM (inactive) in the assay on DU-145.
In the case of `c1ccc(C2=NCCN2)c(C2=NCCN2)c1`, the GI50 in the assay with U-251, in the assay on T47D, with CCRF-CEM, in the assay with SK-MEL-5, in the assay on SN12C and with IGROV-1 was > 100 µM (inactive) throughout. In addition, the GI50 in the assay on SF-539, in the assay with BT-549, in the assay on HT-29, with K562, in the assay with NCI-H226 and in the assay with NCI-H23 was > 100 µM (inactive) in each case. Also, the GI50 in the assay on NCI/ADR-RES, in the assay on TK-10, in the assay on SK-OV-3, in the assay on ACHN and with DU-145 was > 100 µM (inactive) throughout.
Consider `CCN(CC)CCCNC(=O)c1ccccc1Nc1c(Cl)cccc1Cl`, for which the GI50 in the assay on SNB-78 is 15 µM (inactive); in the assay with CCRF-CEM, 6.32 µM (inactive); with SK-MEL-5, 2.96 µM (inactive); with SN12C, 14.2 µM (inactive); with IGROV-1, 17.6 µM (inactive); in the assay on XF498, 2.26 µM (inactive). For the same molecule, the GI50 in the assay with SF-539 is 11.4 µM (inactive); in the assay on HT-29, 4.23 µM (inactive); in the assay on K562 it was 6.76 µM (inactive); with NCI-H226, 12.4 µM (inactive); in the assay with NCI-H23, 16.6 µM (inactive); in the assay with DLD-1 it was 11.6 µM (inactive). The GI50 in the assay with TK-10 was 11.3 µM (inactive); with SK-OV-3, 14.2 µM (inactive); in the assay with ACHN, 10.2 µM (inactive).
Consider `O=c1cnn(C/C=C/CP(=O)(O)O)c(=O)[nH]1`, for which the GI50 is > 100 µM (inactive) in the assay with U-251; > 100 µM (inactive) with T47D; > 10 µM (inactive) in the assay with CCRF-CEM; > 100 µM (inactive) in the assay on SK-MEL-5; > 100 µM (inactive) with SN12C; > 100 µM (inactive) in the assay with IGROV-1. For the same molecule, the GI50 in the assay on SF-539, in the assay on BT-549, in the assay with K562, in the assay on NCI-H226, in the assay with NCI-H23 and with NCI/ADR-RES was > 100 µM (inactive) throughout. Further, the GI50 in the assay on TK-10 was > 100 µM (inactive); in the assay with ACHN, 97.1 µM (inactive); in the assay on DU-145, > 100 µM (inactive).
For `CCOC(=O)C(C)OC(=O)c1ccc(C)cc1` (stereo unspecified), the GI50 in the assay with SNB-78, in the assay on U-251, in the assay with CCRF-CEM, in the assay with SK-MEL-5, with SN12C and in the assay on IGROV-1 was > 100 µM (inactive) throughout. In addition, the GI50 in the assay with XF498 is 84.3 µM (inactive); in the assay on SF-539, > 100 µM (inactive); in the assay on HT-29, > 100 µM (inactive); in the assay with K562, 64.1 µM (inactive); in the assay on NCI-H23, > 100 µM (inactive); with DLD-1, > 100 µM (inactive). For the same molecule, the GI50 in the assay with TK-10, in the assay on SK-OV-3 and in the assay with ACHN was > 100 µM (inactive) in each case.
Regarding `CN(C)CCNc1ccc2nnn3c4ccc(O)cc4c(=O)c1c23`, the GI50 in the assay on SNB-78 was 12.7 µM (inactive); with U-251, 2.1 µM (inactive); with T47D, 11.1 µM (inactive); in the assay on CCRF-CEM it was 1.11 µM (active); in the assay on SK-MEL-5 it was 2.53 µM (inactive); with SN12C, 1.85 µM (inactive). The GI50 in the assay with IGROV-1 was 1.96 µM (inactive); in the assay with SF-539, 3.95 µM (inactive); in the assay on BT-549, 15.2 µM (inactive); with HT-29 it was 4.28 µM (inactive); in the assay on K562 it was 1.61 µM (inactive); in the assay on NCI-H226 it was 6.31 µM (inactive). Moreover, the GI50 in the assay on NCI-H23 is 3.75 µM (inactive); in the assay with NCI/ADR-RES, 1.81 µM (inactive); in the assay on DLD-1, 3.4 µM (inactive); in the assay on TK-10 it was 5.12 µM (inactive); in the assay on SK-OV-3, 3.72 µM (inactive); in the assay on ACHN, 2.76 µM (inactive). The GI50 in the assay with DU-145 was 6.31 µM (inactive).
